Consider four molecules from article PMC6801510, “A2A Receptor Homodimer-Disrupting Sequence Efficiently Delivered by a Protease-Resistant, Cyclic CPP Vector” (International Journal of Molecular Sciences, 2019).

Data set [1] deals with T1, A2AR homodimer (A2A-cYFP / A2A-nYFP) in HEK-293T cells (Homo sapiens, UniProt P29274).
T1 construct: expressed in transfected cells; host or cells: HEK-293T
The data set is described as follows: Bimolecular fluorescence complementation (BiFC) assay of A2A receptor homodimer disruption. To be noted: 4 h incubation with peptide; for Effect on the control BiFC fluorescence (A2AR dimerization): HEK-293T cells, A2A-cYFP / A2A-nYFP, versus fluorescence of the dimer in the absence of peptides. The class given is cell-based.
Experimental: For bimolecular fluorescence complementation (BiFC) assays: cells were transfected using cDNAs coding for two versions of the receptor. As described elsewhere [18, 27], two cDNAs were prepared: each encoding the receptor fused to one of the two halves of the super yellow fluorescent protein (sYFP). […] Each half of the fluorescent protein is unable, by itself, to emit fluorescence, which is only feasible after complementation of the two halves of the sYFP.
To address homodimer disruption, bimolecular fluorescence complementation assays were performed using HEK-293T cells transfected with equal amounts of cDNAs (0.75 µg cDNA each) for A2A-cYFP and A2A-nYFP fusion proteins (intramural production, see [17, 18, 26, 28]). […] Fluorescence was recorded in a Fluostar Optima fluorimeter (BMG Labtechnologies, Offenburg, Germany). […] Values of fluorescence obtained in the absence or presence of peptides are given as mean ± standard error of the mean (SEM) of 16 independent experiments in duplicates.

The subject of another data set is trypsin. The data set is described as follows: Trypsin digestion followed by HPLC. Type of data set: in vitro ADME. To be noted: trypsin (isolated protease), after 30 min, peptide:trypsin 100:1, peptide 1 µg/µL, 50 mM ammonium bicarbonate buffer pH 8.2, 37 °C, reverse-phase HPLC-MS read-out, assays in duplicate, read-out: Decrease in the area of the starting HPLC peak on trypsin treatment. The text has this:
It was of particular interest to ascertain how the internal cyclization and D-amino acid modifications influenced the lifespan of the partially cyclic structures. To this end, peptides 1 and 2, both with a TM5 disruptor sequence fused to a linear or a cyclic CPP motif, respectively, were inspected by high-performance liquid chromatography (HPLC) upon trypsin treatment. Analysis confirmed the vulnerability of fully linear 1 (Figure 3), with a 90% decrease in the area of the starting peak after only 30 min (Figure 4), and the appearance of new peaks identified by mass spectrometry (MS) (Table 2).
A 1000 µg/1000 µL trypsin solution (Thermo Fisher Scientific, Cornellà de Llobregat, Spain) […]) was prepared by suspending the lyophilized enzyme in 50 mM ammonium bicarbonate buffer, pH 8.2. Peptides dissolved in the same buffer (1 µg/µL) were incubated with trypsin (peptide:trypsin ratio = 100:1) for 24 h at 37 °C. Samples were collected at various time points and digestion was stopped by addition of 20% (v/v) of 0.5% formic acid in H2O. Samples were stored at −20 °C until analyzed by reverse-phase HPLC-MS.

In data set [2] the target is T2, adenosine A2A receptor, fused to one half of super yellow fluorescent protein (A2A-cYFP or A2A-nYFP), BiFC … (UniProt P29274 1-412).
T2 construct: source: HEK-293T, transfected, in living cells
T2 sequence (P29274 whole entry, the tested form may be a part): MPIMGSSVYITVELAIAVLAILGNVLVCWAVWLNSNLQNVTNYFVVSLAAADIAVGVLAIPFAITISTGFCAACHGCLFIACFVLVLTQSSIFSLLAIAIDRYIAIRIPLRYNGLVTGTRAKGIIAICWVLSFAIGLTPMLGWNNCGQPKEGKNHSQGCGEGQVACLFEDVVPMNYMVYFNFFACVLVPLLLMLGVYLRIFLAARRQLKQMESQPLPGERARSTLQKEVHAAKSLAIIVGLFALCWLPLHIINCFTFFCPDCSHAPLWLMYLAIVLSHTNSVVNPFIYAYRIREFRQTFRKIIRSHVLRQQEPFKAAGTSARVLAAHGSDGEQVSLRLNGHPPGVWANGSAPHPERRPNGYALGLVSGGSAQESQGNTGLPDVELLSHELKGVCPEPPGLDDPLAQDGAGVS
As to the kind of experiment: split reporter (BiFC, NanoBiT); competition: HEK-293T cells expressing A2A-cYFP and A2A-nYFP treated with TM5 peptides 1 or 2 for 4 h before the complementation assay, in supplemented DMEM; dose-dependent loss of YFP fluorescence. The following applies: one partner purified.

Ends that are not written are not given here.

The term IC50 denotes the concentration at which inhibition is half-maximal.

T1 sequence (P29274 whole entry): as the sequence (P29274 whole entry, the tested form may be a part) above

Turning to “MNYMVYFNFFACVLVPLLLMLGVYLYGRKKRRQRRR-NH2 [Peptide 1]”, in data set [1], the “Effect on the control BiFC fluorescence (A2AR dimerization)” value is on record as “affected the fluorescence of the control in a dose-dependent manner”. Also, the metabolised at 0.5 h, 1 µg/µL with trypsin was found to be 90%. In the case of “MNYMVYFNFFACVLVPLLLMLGVYL[KrRrGrKkRrE]-amide (sidechain bridge or staple) [Peptide 2, Cyclic Tat-like TM5: A2AR TM5 fused to cyclic KrRrGrKkRrE motif, N-terminus acetylated]”, the IC50 in data set [1] (HEK-293T cells transfected with A2A-cYFP and A2A-nYFP, 48 h post-transfection, supplemented DMEM, Figure 2B, mean +/- SD, n = 12 in duplicates, read-out: IC50 for reduction of BiFC (sYFP complementation) fluorescence of the A2AR homodimer) worked out at 350 nM. Further, in data set [1], the “Effect on the control BiFC fluorescence (A2AR dimerization)” value is given as “affected the fluorescence of the control in a dose-dependent manner”.

B1: Peptide 2, cyclic Tat-like TM5 (peptide)
peptide: MNYMVYFNFFACVLVPLLLMLGVYLKRRRGRKKRRE
modifications: also: cyclic (mode of cyclisation not given here)
notes: also called TM5-cyclic Tat-like; cyclic version 2; source: synthetic peptide (Fmoc solid-phase synthesis, on-resin cyclization, purified by preparative HPLC)
For the molecule B1, the concentration for half-maximal inhibition (IC50) in data set [2] came out at 350 nM.

B2: Peptide 1, linear Tat-based TM5 (peptide)
peptide: MNYMVYFNFFACVLVPLLLMLGVYLYGRKKRRQRRR-NH2
notes: TM5 helical domain of the adenosine A2A receptor (A2AR); also called linear TM5-Tat; linear peptide 1; source: synthetic peptide (Fmoc solid-phase synthesis, purified by preparative HPLC)
As to B2, in data set [2], the IC50 is 520 nM.
